The values that follow come from patent publication US20080139480A1, “Combination Of (A) N--4-(3- Pyridyl)-2-Pyrimidine-Amine And (B) At Least One Hypusination Inhibitor And The UseThereof” (priority 2003, published 2008).

“Also recorded” adds a separate entry of the source.

What all share (format): cell-based
The test system of experiment [1] is Bcr-Abl positive K562 cells. Nature of the experiment: MTT assay, growth inhibition / cellular cytotoxicity. As to conditions: 24 h, ciclopirox 0 to 81 μM. As for the experimental part:
(§1) K562 cells were obtained from DSMZ (Bielefeld, Germany). HL-60 lines were kindly provided by Dr. Bühring (Tübingen, Germany). Both cell lines are cultured in RPMI 1640 medium (Gibco-BRL, Invitrogen, UK) containing 10% fetal calf serum (FCS) (Biochrom KG, Berlin, Germany). The cells are incubated at 37° C. in a humidified atmosphere with 5% CO2 in air.
(§2) K652 and HL-60 cells are plated into 96-well flat-bottomed microtiter plates (Becton Dickinson, Heidelberg, Germany) at 1.5×10^4 cells/well in 150 μl of their respective media.
(§3) All analyses are performed in triplicates. After 24 and 48 hours, the viable cells in each well are assayed for their ability to transform 3-(4,5-dimethylthiazol-2-yl)-2,5-diphenyltetrazolium bromide (MTT) into a purple formazan (Twentyman et al., Br. J. Haematol. 71, 19-24 (1989), Arnould et al., Anticancer Res. 10, 145-154 (1990)). Therefore, 10 μl of a 10 mg/ml MTT solution is added in each well. After an incubation period of 2 hours at 37° C., the purple formazan is released by adding lysis buffer (15% sodium dodecyl sulfate [SDS] in DMF/H2O 1:1, pH 4.5) and shaking overnight in the dark. The absorbance of the samples is measured on an enzyme-linked immunosorbent assay (ELISA) plate reader (Dynatech MR7000) at 570 nm. […]

For experiment [2], the system named is Bcr-Abl-negative HL-60 cells. The description is as above. As to conditions: ciclopirox 0 to 81 μM. Here is the method: as §1, §2, §3
Experiment [3] relates to Bcr-Abl negative HL-60 cells. Nature of the experiment: Apoptosis, flow cytometric evaluation of hypodiploid nuclei. The settings on record: ciclopirox 0 to 81 μM. As for the experimental part:
(§4) K562 and HL-60 (2×10^5 cells per well) are cultured in 24-well tissue plates under the conditions described above.
(§5) Briefly, nuclei are prepared by lysing cells in a hypotonic lysis buffer (1% sodium citrate, 0.1% Trition X-100, 50 μg propidium iodide per ml) and subsequently analyzed by flow cytometry. Nuclei to the left of the 2N peak containing hypodiploid DNA are considered as apoptotic. Flow cytometric analysis are performed on a FACScalibur (Becton Dickinson) using […] analysis software.
(§6) Apoptosis was also measured after 24 h by flow cytometric evaluation of hypodiploid nuclei as described in above Methods.
Background: Flow cytometry measures light scatter and fluorescence of single cells or particles in a stream.

For experiment [4], the system named is Bcr-Abl-positive K562 cells. The experiment is described as above. The settings on record: ciclopirox 0 to 81 μM. Here is the method: as §4, §5, §6

Regarding `Cc1cc(C2CCCCC2)n(O)c(=O)c1` [ciclopirox, 6-cyclohexyl-1-hydroxy-4-methyl-2(1H)-pyridinone], in experiment [1], the “growth inhibition / cell viability, single agent” value was “inhibits cell viability; also recorded: anti-proliferative effect was detected”. Besides, in experiment [2], the “cell viability, single agent” value is recorded as “inhibits cell viability”. Moreover, the “induction of apoptosis, single agent” value in experiment [3] and in experiment [4] was “induces apoptosis” in each case.
